# Source: publication PMC5618429, “Kempopeptin C, a Novel Marine-Derived Serine Protease Inhibitor Targeting Invasive Breast Cancer” (Marine Drugs, 2017)
# Columns and labels:
# [1] = target: T1, trypsin from porcine pancreas (Sus scrofa, UniProt P00761); assay: Trypsin inhibition assay; format: biochemical; conditions: mean ± SD, n = 3; 30-min preincubation; read-out: IC50 against trypsin
# T1 construct: purchased Sigma T0303; host or cells: porcine pancreas
# Procedure: The trypsin inhibition assay was carried out at room temperature by incubating 10 µL of trypsin from porcine pancreas (T0303, Sigma, St. Louis, MO, USA) (100 µM prepared in assay buffer) with 39 µL of assay buffer (50 mM Tris-HCl, 100 mM NaCl, 1 mM CaCl2; pH 7.8) in the presence of 1 µL of different concentrations of inhibitors (2 and 3; half log dilutions prepared in DMSO) or the solvent control. After a 30-min incubation time, 50 µL of the 1.5 mM substrate: Nα-benzoyl-DL-arginine-4-nitroanilide (prepared as 2 mM stock solution in DMF and further diluted to 1.5 mM in assay buffer) were added to each well. The reaction was monitored by measuring the absorbance at 405 nm every 30 s for 30 min using SpectraMax M5 plate reader (Molecular Devices, Sunnyvale, CA, USA).
# [2] = target: T2, recombinant human matriptase (Homo sapiens, UniProt Q9Y5Y6); assay: In vitro cleavage of desmoglein-2 by matriptase (SDS-PAGE, silver stain, densitometry); format: biochemical; conditions: 3 h; for Inhibition of in vitro cleavage of Dsg-2 by matriptase: enzyme to substrate ratio 1:5, pH 9.0, 37 °C, 10‒0.01 µM inhibitor, qualitative
# T2 construct: purchased R&D Systems 3946-SE-010
# T2 sequence (Q9Y5Y6 615-855 limits assumed): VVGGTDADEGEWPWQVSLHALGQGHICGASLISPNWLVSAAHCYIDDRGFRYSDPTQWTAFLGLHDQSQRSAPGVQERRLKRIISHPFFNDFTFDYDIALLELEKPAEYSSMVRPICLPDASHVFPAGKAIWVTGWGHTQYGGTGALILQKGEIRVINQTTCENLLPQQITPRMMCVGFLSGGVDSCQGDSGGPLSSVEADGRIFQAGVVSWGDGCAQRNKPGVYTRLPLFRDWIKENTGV
# Procedure: Figure 4 The effect of kempopeptin C (3) on the in vitro cleavage of CDCP1 and desmoglein-2 (Dsg-2) by matriptase. (A,B) Incubation of recombinant human CDCP1 with recombinant human matriptase (enzyme to substrate ratio 1:5) in 50 mM Tris, 50 mM NaCl, 0.01% Tween 20 (pH 9.0) at 37 °C for 30 min and 2 h in the presence and absence of different concentrations (10‒0.01 µM) of kempopeptin C (3). (C) Incubation of recombinant human Dsg-2 with recombinant human matriptase (enzyme to substrate ratio 1:5) in 50 mM Tris, 50 mM NaCl, 0.01% tween 20 (pH 9.0) at 37 °C for 3 h in the presence and absence of different concentrations (10‒0.01 µM) of kempopeptin C (3). Fragments were separated on SDS-PAGE under reducing conditions and silver stained. (D) Densitometric analysis of Dsg-2 bands in the SDS-PAGE in […].
# Among the earliest events in cancer metastasis is the loss of intracellular adhesion. Desmosomes are adhesive molecules localized at the cell membrane acting as an anchor for intermediate filaments in addition to being adhesive intracellular junctions. Desmogleins (Dsg 1‒4) and desmocollins (Dsc 1‒3), comprising the core of the desmosomal adhesive complex, are glycoproteins and members of the cadherin superfamily of proteins. Desmogleins have been reported to be aberrantly expressed in several cancers and substrates of several proteases. Dsg-2 is known to be a substrate of kallikrein 7 (KLK7) and harbors a cleavage site for matriptase. We therefore investigated the cleavage of Dsg-2 by matriptase in vitro and the ability of kempopeptin C (3) to inhibit or reduce this cleavage. Matriptase and Dsg-2 were incubated for 3 h at 37 °C in assay buffer (final molar ratio 1:5) in the presence of different concentrations of kempopeptin C (3) or solvent control (Figure 4C). The resulting protein fragments were separated by SDS-PAGE and subjected to silver staining. […] The incomplete cleavage of Dsg-2 by matriptase might be due to the relative affinity of kempopeptin C (3) to matriptase, such that it can block the cleavage of some low affinity bands, but have no effects on others. […]
# [3] = Cell viability assay (MTT); format: cell-based; conditions: human, MDA-MB-231 breast cancer cells; MDA-MB-231, 48 h, all concentrations tested (32 µM to 320 pM)
# Procedure: MDA-MB-231 cells were seeded in 96-well plates (10,000 cells/well). After 24 h of incubation, the cells were treated with different concentrations of kempopeptins B or C (2 or 3) or the solvent control (DMSO). Following 48 h of incubation, cell viability was measured using 3-(4,5-dimethylthiazol-2-yl)-2,5-diphenyltetrazolium bromide according to the manufacturer's instructions (Promega, Madison, WI, USA).
# Effect of kempopeptins on the viability of MDA-MB-231 cells
# Kempopeptin C Kempopeptin B
# Figure S1. Effect of kempopeptins B and C (2) and (3) on the viability of MDA -MB-231 breast cancer cells.
# T1 sequence (P00761 9-231): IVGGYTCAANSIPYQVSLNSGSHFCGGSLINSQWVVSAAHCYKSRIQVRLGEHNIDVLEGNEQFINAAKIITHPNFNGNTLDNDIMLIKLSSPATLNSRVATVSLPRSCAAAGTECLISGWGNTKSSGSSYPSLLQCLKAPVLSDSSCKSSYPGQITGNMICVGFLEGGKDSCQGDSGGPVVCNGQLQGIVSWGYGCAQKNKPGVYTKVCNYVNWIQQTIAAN
compound,measurement,setting,value
"CCCC(=O)NC(C(=O)NC1C(=O)NC(CCCCN)C(=O)NC2CCC(O)N(C2=O)C(C(C)CC)C(=O)N(C)C(Cc2ccc(OC)c(Cl)c2)C(=O)NC(C(C)C)C(=O)OC1C)C(C)C (centres unmarked) [Kempopeptin C, kempopeptin C]",IC50,[1],190 ± 50 nM
same,Densitometry of full-length Dsg-2 (Band 1),"[2]; 37 °C, compared to lower concentrations of the inhibitor","higher intensity of the full-length Dsg-2 (Band 1) in the presence of 10, 1 and 0.1 µM"
same,Inhibition of in vitro cleavage of Dsg-2 by matriptase,[2],inhibit the cleavage
same,Inhibition of in vitro cleavage of Dsg-2 by matriptase,[2]; listed as Kempopeptin C (3),slight dose-dependent reduction in the cleavage of Dsg-2
same,viability at 48 h,[3],> 90%
